Laboratory results: ChEMBL document CHEMBL1124763, “Nucleoside conjugates. 11. Synthesis and antitumor activity of 1-beta-D-arabinofuranosylcytosine and cytidine conjugates of thioether lipids” (1990)

Experiments:
[1] = system: Mus musculus; assay: Median survival time for antitumor activity against Ip implanted L1210 / 0 lymphoid leukemia in mice at a dose of 300 mg/kg per day after treatment 1;7.5-8; details: route intraperitoneal
[2] = system: Mus musculus; assay: Range of survival days for antitumor activity against Ip implanted L1210 / 0 lymphoid leukemia in mice at a dose of 300 mg/kg per day after treatment 1; range is 7-9; format: functional; details: route intraperitoneal
[3] = system: Mus musculus; assay: Survival time treated/survival time tested (T/C) for antitumor activity against Ip implanted L1210 / ara-C (II) lymphoid leukemia in mice at a dose of 300 mg/kg per day;8/9; format: functional; details: route intraperitoneal
[4] = system: Mus musculus; assay: Increase of life span was determined against Ip implanted L1210 / ara-C (II) lymphoid leukemia in mice at a dose of 300 mg/kg per day; format: functional; details: route intraperitoneal
[5] = system: Mus musculus; assay: Range of survival days for antitumor activity against Ip implanted L1210 / ara-C (II )lymphoid leukemia in mice at a dose of 300 mg/kg per day; range is 7-8; format: functional; details: route intraperitoneal
[6] = system: Mus musculus; assay: Increase of life span was determined against Ip implanted L1210 / 0 lymphoid leukemia in mice at a dose of 300 mg/kg per day after treatment 1; format: functional; details: L1210/0, ip, route intraperitoneal
[7] = system: Mus musculus; assay: Survival time treated / survival time (T/C) for antitumor activity against Ip implanted L1210 / 0 lymphoid leukemia in mice at a dose of 400 mg/kg per day after treatment 1;14/8; format: functional; details: route intraperitoneal
[8] = system: Mus musculus; assay: Survival time treated / survival time (T/C) for antitumor activity against Ip implanted L1210 / 0 lymphoid leukemia in mice at a dose of 100 mg/kg per day after treatment 1-5;21.5/8; format: functional; details: route intraperitoneal
[9] = system: Mus musculus; assay: Range of survival days for antitumor activity against Ip implanted L1210 / 0 lymphoid leukemia in mice at a dose of 400 mg/kg per day after treatment 1; range is 11-15; format: functional; details: route intraperitoneal
[10] = system: Mus musculus; assay: Increase of life span was determined against Ip implanted L1210 / 0 lymphoid leukemia in mice at a dose of 400 mg/kg per day after treatment 1; format: functional; details: L1210/0, ip, route intraperitoneal
[11] = system: Mus musculus; assay: Increase of life span was determined against Ip implanted L1210 / 0 lymphoid leukemia in mice at a dose of 80 mg/kg per day after treatment 1-5; format: functional; details: L1210/0, ip, route intraperitoneal
[12] = system: Mus musculus; assay: Survival time treated / survival time (T/C) for antitumor activity against Ip implanted L1210 / 0 lymphoid leukemia in mice at a dose of 80 mg/kg per day after treatment 1-5;16/8; format: functional; details: route intraperitoneal
[13] = system: Mus musculus; assay: Range of survival days for antitumor activity against Ip implanted L1210 / 0 lymphoid leukemia in mice at a dose of 100 mg/kg per day after treatment 1- 5; range is 15-32; format: functional; details: route intraperitoneal
[14] = system: Mus musculus; assay: Increase of life span was determined against Ip implanted L1210 / 0 lymphoid leukemia in mice at a dose of 100 mg/kg per day after treatment 1-5; format: functional; details: L1210/0, ip, route intraperitoneal
[15] = system: Mus musculus; assay: Range of survival days for antitumor activity against Ip implanted L1210 / 0 lymphoid leukemia in mice at a dose of 80 mg/kg per day after treatment 1-5; range is 14-19; format: functional; details: route intraperitoneal
[16] = system: Mus musculus; assay: Increase of life span was determined against Ip implanted L1210 / 0 lymphoid leukemia in mice at a dose of 200 mg/kg per day after treatment 1-5; format: functional; details: L1210/0, ip, route intraperitoneal
[17] = system: Mus musculus; assay: Survival time treated for antitumor activity against Ip implanted L1210 / 0 lymphoid leukemia in mice at a dose of 400 mg/kg per day after treatment 1;8/7; details: route intraperitoneal
[18] = system: Mus musculus; assay: Range of survival days for antitumor activity against Ip implanted L1210 / 0 lymphoid leukemia in mice at a dose of 200 mg/kg per day after treatment 1-5; range is 15-17; format: functional; details: route intraperitoneal
[19] = system: Mus musculus; assay: Range of survival days for antitumor activity against Ip implanted L1210 / 0 lymphoid leukemia in mice at a dose of 400 mg/kg per day after treatment 5; format: functional; details: route intraperitoneal
[20] = system: Mus musculus; assay: Range of survival days for antitumor activity against Ip implanted L1210 / 0 lymphoid leukemia in mice at a dose of 400 mg/kg per day after treatment 1; range is 8-10; format: functional; details: route intraperitoneal
[21] = system: Mus musculus; assay: Survival time treated for antitumor activity against Ip implanted L1210 / 0 lymphoid leukemia in mice at a dose of 200 mg/kg per day after treatment 1-5;16/7; details: route intraperitoneal
[22] = system: Mus musculus; assay: Survival time treated for antitumor activity against Ip implanted L1210 / 0 lymphoid leukemia in mice at a dose of 400 mg/kg per day after treatment 5;10/7; details: route intraperitoneal
[23] = system: Mus musculus; assay: Increase of life span was determined against Ip implanted L1210 / 0 lymphoid leukemia in mice at a dose of 400 mg/kg per day after treatment 5; format: functional; details: L1210/0, ip, route intraperitoneal
[24] = system: Mus musculus; assay: Increase of life span was determined against Ip implanted L1210 / 0 lymphoid leukemia in mice at a dose of 60 mg/kg per day after treatment 1-5; format: functional; details: L1210/0, ip, route intraperitoneal
[25] = system: Mus musculus; assay: Range of survival days for antitumor activity against Ip implanted L1210 / 0 lymphoid leukemia in mice at a dose of 300 mg/kg per day after treatment 1;range is 18-30; format: functional; details: route intraperitoneal
[26] = system: Mus musculus; assay: Increase of life span was determined against Ip implanted L1210 / ara-C lymphoid leukemia in mice at a dose of 167 mg/kg per day; format: functional; details: route intraperitoneal
[27] = system: Mus musculus; assay: Range of survival days for antitumor activity against Ip implanted L1210 / 0 lymphoid leukemia in mice at a dose of 400 mg/kg per day after treatment 1;range is 16->45; format: functional; details: route intraperitoneal
[28] = system: Mus musculus; assay: Range of survival days for antitumor activity against Ip implanted L1210 / 0 lymphoid leukemia in mice at a dose of 400 mg/kg per day after treatment 5;[…]; format: functional; details: route intraperitoneal
[29] = system: Mus musculus; assay: Survival time treated / survival time (T/C) for antitumor activity against Ip implanted L1210 / 0 lymphoid leukemia in mice at a dose of 100 mg/kg per day after treatment 1-5;36.5/8; format: functional; details: route intraperitoneal
[30] = system: Mus musculus; assay: Range of survival days for antitumor activity against Ip implanted L1210 / ara-C lymphoid leukemia in mice at a dose of 300 mg/kg per day; format: functional; details: route intraperitoneal
[31] = system: Mus musculus; assay: Survival time treated / survival time (T/C) for antitumor activity against Ip implanted L1210 / 0 lymphoid leukemia in mice at a dose of 300 mg/kg per day after treatment 5;17/8; format: functional; details: route intraperitoneal
[32] = system: Mus musculus; assay: Range of survival days for antitumor activity against Ip implanted L1210 / 0 lymphoid leukemia in mice at a dose of 60 mg/kg per day after treatment 1-5;range is 16-37; format: functional; details: route intraperitoneal
[33] = system: Mus musculus; assay: Survival time treated / survival time (T/C) for antitumor activity against Ip implanted L1210 / 0 lymphoid leukemia in mice at a dose of 400 mg/kg per day after treatment 5;16.5/8; format: functional; details: route intraperitoneal
[34] = system: Mus musculus; assay: Range of survival days for antitumor activity against Ip implanted L1210 / 0 lymphoid leukemia in mice at a dose of 300 mg/kg per day after treatment 5;range is 15-21; format: functional; details: route intraperitoneal
[35] = system: Mus musculus; assay: Survival time treated/survival time tested (T/C) for antitumor activity against Ip implanted L1210 / ara-C lymphoid leukemia in mice at a dose of 60 mg/kg per day; format: functional; details: route intraperitoneal
[36] = system: Mus musculus; assay: Survival time treated / survival time (T/C) for antitumor activity against Ip implanted L1210 / 0 lymphoid leukemia in mice at a dose of 300 mg/kg per day after treatment 1;25/7; format: functional; details: route intraperitoneal
[37] = system: Mus musculus; assay: Survival time treated / survival time (T/C) for antitumor activity against Ip implanted L1210 / 0 lymphoid leukemia in mice at a dose of 400 mg/kg per day after treatment 1;27.5/7; format: functional; details: route intraperitoneal
[38] = system: Mus musculus; assay: Range of survival days for antitumor activity against Ip implanted L1210 / ara-C lymphoid leukemia in mice at a dose of 167 mg/kg per day; format: functional; details: route intraperitoneal
[39] = system: Mus musculus; assay: Range of survival days for antitumor activity against Ip implanted L1210 / 0 lymphoid leukemia in mice at a dose of 100 mg/kg per day after treatment 1-5;range is 14->45; format: functional; details: route intraperitoneal
[40] = system: Mus musculus; assay: Survival time treated/survival time tested (T/C) for antitumor activity against Ip implanted L1210 / ara-C lymphoid leukemia in mice at a dose of 167 mg/kg per day; format: functional; details: route intraperitoneal
[41] = system: Mus musculus; assay: Increase of life span was determined against Ip implanted L1210 / ara-C lymphoid leukemia in mice at a dose of 300 mg/kg per day; format: functional; details: route intraperitoneal
[42] = system: Mus musculus; assay: Range of survival days for antitumor activity against Ip implanted L1210 / ara-C lymphoid leukemia in mice at a dose of 60 mg/kg per day; format: functional; details: route intraperitoneal
[43] = system: Mus musculus; assay: Survival time treated/survival time tested (T/C) for antitumor activity against Ip implanted L1210 / ara-C lymphoid leukemia in mice at a dose of 300 mg/kg per day; format: functional; details: route intraperitoneal
[44] = system: Mus musculus; assay: Increase of life span was determined against Ip implanted L1210 / ara-C lymphoid leukemia in mice at a dose of 60 mg/kg per day; format: functional; details: route intraperitoneal
[45] = system: Mus musculus; assay: Increase of life span was determined against Ip implanted L1210 / 0 lymphoid leukemia in mice at a dose of 300 mg/kg per day after treatment 5; format: functional; details: L1210/0, ip, route intraperitoneal
[46] = system: Mus musculus; assay: Survival time treated / survival time (T/C) for antitumor activity against Ip implanted L1210 / 0 lymphoid leukemia in mice at a dose of 60 mg/kg per day after treatment 1-5;26.5/8; format: functional; details: route intraperitoneal

With CCCCCCCCCCCCCCCCCCSCC(COP(=O)(O)OP(=O)(O)OC[C@H]1O[C@@H](n2ccc(N)nc2=O)[C@H](O)[C@@H]1O)OC(=O)CCCCCCCCCCCCCCC (mixture of isomers) the median survival time [1] was 7.5 days, the “Range of survival days” value [2] was 7 and the median survival time [3] was 8 days. The ILS at 300 mg/kg/day [4] was -11%, the “Range of survival days” value [5] was 7 and the ILS at 300 mg/kg/day [6] was -6%.

With CCCCCCCCCCCCCCCCCCSCC(COP(=O)(O)OP(=O)(O)OC[C@H]1OC(n2ccc(N)nc2=O)[C@@H](O)[C@@H]1O)OCCCCCCCCCCCCCCCC (mixture of isomers) the T/C [7] was 14, the T/C [8] was 21.5 and the “Range of survival days” value [9] was 11. For the same compound, the ILS at 400 mg/kg/day [10] was 75%, the ILS at 80 mg/kg/day [11] was 100% and the T/C [12] was 16. For the same compound, the “Range of survival days” value [13] was 15, the ILS at 100 mg/kg/day [14] was 169% and the “Range of survival days” value [15] was 14.

For Nc1ccn([C@@H]2O[C@H](CO)[C@@H](O)[C@@H]2O)c(=O)n1 [CYTARABINE], the ILS at 200 mg/kg/day [16] was 129%, the survival time [17] was 8 days and the ILS at 400 mg/kg/day [10] was 14%. The “Range of survival days” value [18] was 15, the “Range of survival days” value [19] was 10 and the “Range of survival days” value [20] was 8. For the same compound, the survival time [21] was 16 days, the survival time [22] was 10 days and the ILS at 400 mg/kg/day [23] was 43%.

With CCCCCCCCCCCCCCCCSCC(COP(=O)(O)OP(=O)(O)OC[C@H]1OC(n2ccc(N)nc2=O)[C@@H](O)[C@@H]1O)OC(=O)CCCCCCCCCCCCCCC (mixture of isomers) the ILS at 60 mg/kg/day [24] was 231%, the “Range of survival days” value [25] was 18 and the ILS at 400 mg/kg/day [10] was 293%. The ILS at 167 mg/kg/day [26] was 310%, the “Range of survival days” value [27] was greater than 16 and the “Range of survival days” value [28] was 15. For the same compound, the T/C [29] was 36.5, the Range [30] was greater than 45 and the T/C [31] was 17. The “Range of survival days” value [32] was 16, the T/C [33] was 16.5 and the “Range of survival days” value [34] was 15. The T/C [35] was greater than 41, the T/C [36] was 25 and the T/C [37] was 27.5. The Range [38] was greater than 7, the “Range of survival days” value [39] was greater than 14 and the T/C [40] was 41. The ILS at 300 mg/kg/day [41] was greater than 400%, the ILS at 100 mg/kg/day [14] was 356% and the Range [42] was greater than 29. For the same compound, the ILS at 300 mg/kg/day [6] was 257%, the T/C [43] was greater than 45 and the ILS at 60 mg/kg/day [44] was greater than 356%. The ILS at 300 mg/kg/day [45] was 113%, the ILS at 400 mg/kg/day [23] was 106% and the T/C [46] was 26.5.
